Test results taken from US10538555B2, “Macrocyclic inhibitors of the PD-1/PD-L1 and CD80(B7-1)/PD-L1 protein/protein interactions” (BRISTOL-MYERS SQUIBB COMPANY, priority 2014, dated 2020).
Read-outs that look alike come from different tables or passages of the source. *1 amine or outer side, *2 acyl side, *3 side chain or, on linkers, in order; H or OH if unused. Where a SMILES comes first, the peptide text is derived from it. Bridges are numbered along the chain shown (N, C = ends). [ ]: non-standard residue; d: D form. Trp(1-CH2COOH) = N[C@@H](Cc1cn(CC(=O)O)c2ccccc12)C(=O)O; Phe(3,4,5-F3) = N[C@@H](Cc1cc(F)c(F)c(F)c1)C(=O)O; Phe(3,4-F2) = N[C@@H](Cc1ccc(F)c(F)c1)C(=O)O; NMePhe(4-F) = CN[C@@H](Cc1ccc(F)cc1)C(=O)O; d(cisHyp) = O=C(O)[C@H]1C[C@@H](O)CN1; Hyp = O=C(O)[C@@H]1C[C@@H](O)CN1; NMeF = CN[C@@H](Cc1ccccc1)C(=O)O; X1 = O=C([C@H]1COCCN1[*:1])[*:2]; dNMeF = CN[C@H](Cc1ccccc1)C(=O)O; dHyp = O=C(O)[C@H]1C[C@H](O)CN1; NMehSer = CN[C@@H](CCO)C(=O)O; NMeNle = CCCC[C@H](NC)C(=O)O; Tle = CC(C)(C)[C@H](N)C(=O)O; dPip = O=C(O)[C@H]1CCCCN1; hSer = N[C@@H](CCO)C(=O)O; NMeA = CN[C@@H](C)C(=O)O; Dab = NCC[C@H](N)C(=O)O; Dap = NC[C@H](N)C(=O)O

Biological target: T1, Human PD-L1/PD-1 (Homo sapiens, UniProt Q9NZQ7)
T1 construct: TVMV protease cleavage site (C); made in house; host or cells: HEK293T cells
T1 sequence (Q9NZQ7 with tags, fused parts or gaps): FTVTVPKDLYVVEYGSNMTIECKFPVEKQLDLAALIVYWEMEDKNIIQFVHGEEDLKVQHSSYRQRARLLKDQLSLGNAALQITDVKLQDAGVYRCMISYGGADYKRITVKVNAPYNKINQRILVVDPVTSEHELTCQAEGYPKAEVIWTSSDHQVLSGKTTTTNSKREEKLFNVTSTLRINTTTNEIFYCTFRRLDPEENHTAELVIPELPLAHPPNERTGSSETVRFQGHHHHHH
Test: HTRF Human PD-L1/PD-1 binding assay (PD-1-Ig/PD-L1-His)
Conditions: PD-L1-His 10 nM, PD-1-Ig 20 nM
Source text: Methods for Testing the Ability of Macrocyclic Peptides to Compete for the Binding of PD-1 to PD-L1 Using Homogenous Time-Resolved Fluorescence (HTRF) Binding Assays
The ability of the macrocyclic peptides of the present disclosure to bind to PD-L1 was investigated using a PD-1/PD-L1 Homogenous Time-Resolved Fluorescence (HTRF) binding assay.
Homogenous Time-Resolved Fluorescence (HTRF) Assays of Binding of Soluble PD-1 to Soluble PD-L1. Soluble PD-1 and soluble PD-L1 refers to proteins with carboxyl-end truncations that remove the transmembrane-spanning regions and are fused to heterologous sequences, specifically the Fc portion of the human immunoglobuling G sequence (Ig) or the hexahistidine epitope tag (His). All binding studies were performed in an HTRF assay buffer consisting of dPBS supplemented with 0.1% (w/v) bovine serum albumin and 0.05% (v/v) Tween-20. For the PD-1-Ig/PD-L1-His binding assay, inhibitors were pre-incubated with PD-L1-His (10 nM final) for 15 m in 4 μl of assay buffer, followed by addition of PD-1-Ig (20 nM final) in 1 μl of assay buffer and further incubation for 15 m. PD-L1 fusion proteins from either human, cynomolgus macaques, or mouse were used. HTRF detection was achieved using europium crypate-labeled anti-Ig monoclonal antibody (1 nM final) and allophycocyanin (APC) labeled anti-His monoclonal antibody (20 nM final). Antibodies were diluted in HTRF detection buffer and 5 μl was dispensed on top of binding reaction. The reaction was allowed to equilibrate for 30 minutes and signal (665 nm/620 nm ratio) was obtained using an EnVision fluorometer. Additional binding assays were established between PD-1-Ig/PD-L2-His (20 and 5 nM, respectively), CD80-His/PD-L1-Ig (100 and 10 nM, respectively) and CD80-His/CTLA4-Ig (10 and 5 nM, respectively). Competition studies between biotinylated Compound No. 71 and human PD-L1-His were performed as follows. Macrocyclic peptide inhibitors were pre-incubated with PD-L1-His (10 nM final) for 60 minutes in 4 μl of assay buffer followed by addition of biotinylated Compound No. 71 (0.5 nM final) in 1 μl of assay buffer. Binding was allowed to equilibrate for 30 minutes followed by addition of europium crypated labeled Streptavidin (2.5 pM final) and APC-labeled anti-His (20 nM final) in 5 μl of HTRF buffer. The reaction was allowed to equilibrate for 30 m and signal (665 nm/620 nm ratio) was obtained using an EnVision fluorometer.
Recombinant Proteins. Carboxyl-truncated human PD-1 (amino acids 25-167) with a C-terminal human Ig epitope tag [hPD-1 (25-167)-3S-IG] and human PD-L1 (amino acids 18-239) with a C-terminal His epitope tag [hPD-L1([…])-tobacco vein mottling virus protease cleavage site (TVMV)-His] were expressed in HEK293T cells and purified sequentially by rProteinA affinity chromatography and size exclusion chromatography.

[1] = class symbol, read-out: HTRF Human PD-L1/PD-1 Binding Assay IC50 Range

Structure (SMILES)	IC50 [1]	IC50 (read-out: HTRF Human PD-L1/PD-1 Binding Assay IC50)
CCCC[C@H]1C(=O)N(C)[C@@H](CCCC)C(=O)N[C@@H](CC(C)C)C(=O)N[C@H](C(=O)NCC(N)=O)CSCC(=O)N[C@@H](Cc2ccc(OC)cc2)C(=O)N(C)[C@@H](C)C(=O)N[C@@H](CC(N)=O)C(=O)N2CCC[C@@H]2C(=O)N[C@@H](CN)C(=O)N[C@@H](C(C)C)C(=O)N2C[C@@H](O)C[C@@H]2C(=O)N[C@@H](Cc2c[nH]c3ccccc23)C(=O)N[C@@H](CCN)C(=O)N[C@@H](Cc2cn(CC(=O)O)c3ccccc23)C(=O)N1C [Example 7151] ({CH2CO}-Y(Me)[NMeA]N[dP][Dap]V[dHyp]W[Dab][Trp(1-CH2COOH)][NMeNle][NMeNle]LCG-NH2; thioether N-14)	1 to 9.9 nM	
CCCC[C@H]1C(=O)N(C)[C@@H](CCCC)C(=O)N[C@@H](CCC(=O)O)C(=O)N[C@H](C(=O)NCC(N)=O)CSCC(=O)N[C@@H](Cc2ccc(O)cc2)C(=O)N(C)[C@@H](C)C(=O)N[C@@H](CC(N)=O)C(=O)N2CCC[C@H]2C(=O)N[C@@H](CO)C(=O)N[C@@H](CCC(=O)O)C(=O)N2C[C@H](O)C[C@H]2C(=O)N[C@@H](Cc2c[nH]c3ccccc23)C(=O)N[C@@H](CCC(=O)O)C(=O)N[C@@H](Cc2c[nH]c3ccccc23)C(=O)N1C [Example 5196] ({CH2CO}-Y[NMeA]NPSE[Hyp]WEW[NMeNle][NMeNle]ECG-NH2; thioether N-14)	1 to 9.9 nM	
COCC[C@H]1C(=O)N2C[C@@H](O)C[C@@H]2C(=O)N[C@@H](CC(=O)O)C(=O)N[C@@H](C(C)C)C(=O)N(C)[C@H](Cc2ccccc2)C(=O)N[C@@H](Cc2ccc(OC)cc2)C(=O)N2C[C@@H](O)C[C@@H]2C(=O)N[C@@H](Cc2c[nH]c3ccccc23)C(=O)N[C@@H](Cc2ccc(O)cc2)C(=O)N[C@@H](CC(C)C)C(=O)N[C@H](C(=O)NCC(N)=O)CSCC(=O)N[C@@H](Cc2ccc(F)c(F)c2)C(=O)N(C)[C@@H](Cc2ccccc2)C(=O)N1C [Example 9236] ({CH2CO}-[Phe(3,4-F2)][NMeF][NMehSer](Me)[dHyp]DV[dNMeF]Y(Me)[dHyp]WYLCG-NH2; thioether N-13)	1 to 9.9 nM	
CCCC[C@H]1C(=O)N2C[C@H](O)C[C@@H]2C(=O)N[C@@H](CC(=O)O)C(=O)N[C@@H](C(C)C)C(=O)N(C)[C@@H](Cc2ccccc2)C(=O)N[C@@H](CC(=O)O)C(=O)N2CCOC[C@@H]2C(=O)N[C@@H](Cc2c[nH]c3ccccc23)C(=O)N[C@@H](Cc2ccc(O)cc2)C(=O)N[C@@H](CCOC)C(=O)N[C@H](C(=O)NCC(N)=O)CSCC(=O)N[C@@H](Cc2cc(F)c(F)c(F)c2)C(=O)N(C)[C@@H](Cc2ccccc2)C(=O)N1C [Example 10161] ({CH2CO}-[Phe(3,4,5-F3)][NMeF][NMeNle][d(cisHyp)]DV[NMeF]D[X1]WY[hSer](Me)CG-NH2; thioether N-13)	1 to 9.9 nM	
CCCC[C@H]1C(=O)N2C[C@@H](O)C[C@@H]2C(=O)N[C@@H](CC(=O)O)C(=O)N[C@@H](C(C)C)C(=O)N(C)[C@@H](Cc2ccccc2)C(=O)N[C@@H](CCC(=O)O)C(=O)N2CCCC[C@@H]2C(=O)N[C@@H](Cc2c[nH]c3ccccc23)C(=O)N[C@@H](Cc2ccc(O)cc2)C(=O)N[C@@H](CN)C(=O)N[C@H](C(=O)NCC(N)=O)CSCC(=O)N[C@@H](Cc2cc(F)c(F)c(F)c2)C(=O)N(C)[C@@H](Cc2ccc(F)cc2)C(=O)N1C [Example 10567] ({CH2CO}-[Phe(3,4,5-F3)][NMePhe(4-F)][NMeNle][dHyp]DV[NMeF]E[dPip]WY[Dap]CG-NH2; thioether N-13)	1 to 9.9 nM	
CCCC[C@H]1C(=O)N2CCC[C@@H]2C(=O)N[C@@H](CC(=O)O)C(=O)N[C@@H](C(C)(C)C)C(=O)N(C)[C@@H](Cc2ccccc2)C(=O)N[C@@H](Cc2ccc(O)cc2)C(=O)N2CCCC[C@@H]2C(=O)N[C@@H](Cc2c[nH]c3ccccc23)C(=O)N[C@@H](Cc2ccc(O)cc2)C(=O)N[C@@H](CC(C)C)C(=O)N[C@H](C(=O)NCC(N)=O)CSCC(=O)N[C@@H](Cc2cc(F)c(F)c(F)c2)C(=O)N(C)[C@@H](Cc2ccccc2)C(=O)N1C [Example 3222] ({CH2CO}-[Phe(3,4,5-F3)][NMeF][NMeNle][dP]D[Tle][NMeF]Y[dPip]WYLCG-NH2; thioether N-13)		4.5 nM
